Patent US20250214991A1 (Oncopia Therapeutics, Inc. d/b/a/ SK Life Science Labs, priority 2022, published 2025)

Tests used:
IKZF1 = IKZF1 (Homo sapiens (Human), UniProt Q13422+Q96SW2); assay: In vitro IKZF1 HiBit Assay (HEK293T Flp-in-HiBiT-IKZF1 stable cell line); format: cell-based; conditions: HEK293T Flp-in-HiBiT-IKZF1 stable cell line, 6 hrs incubation; for DC50: read-out: IKZF1 HiBit DC50; for Dmax: HEK-293T, read-out: IKZF1 HiBit Dmax (%)
How it was run: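 Degradation was measured as loss of luminescence from the HiBiT-IKZF1 tag after 6 h compound treatment, with 0.1% final DMSO, in stable HEK293T Flp-in cells. Values were normalized to DMSO, giving the 50% degradation concentration and the maximal degradation range.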

IKZF2 [1] = biological target: T1, IKZF2 (Homo sapiens (Human), UniProt Q96SW2+Q9UKS7); assay: In vitro IKZF2 FACS Assay in Jurkat cells; format: cell-based; conditions: 24 hrs; for DC50: half maximal degradation concentration; for Dmax: maximal degradation percentage
Method: In vitro IKZF2 FACS Assay
DC50, A: <1 nM; B: 1-10 nM; C: 10-100 nM; D: 100-1000 nM; E: >1000 nM. Dmax, A: >80%; B: 60-80%; C: 40-60%; D: 20-40%; E: <20%.

IKZF2 [2] = biological target: T1, IKZF2; assay: In vitro IKZF2 HiBit Assay (HEK293T Flp-in-HiBiT cells); format: cell-based; conditions: HEK293T Flp-in-HiBiT cells, 6 hrs incubation; for DC50: read-out: IKZF2 HiBit DC50; for Dmax: HEK-293T, read-out: IKZF2 HiBit Dmax (%)
How it was run: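 Remaining tagged Helios was read as lytic HiBiT/LgBiT luminescence normalized to DMSO, yielding binned DC50 and Dmax values. Treatment ran 6 h, with compounds at 11 three-fold doses diluted from 1 mM and 0.1% final DMSO. The cells were HEK293T Flp-in with CRISPR knock-in of HiBiT at the IKZF2 N-terminus.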

CRBN/DDB1 = CRBN/DDB1 (Homo sapiens (Human), UniProt Q96SW2); assay: IC50 measurements for binding to CRBN/DDB1 (HTRF); conditions: His tagged CRBN+DDB, Cy5-labeled Thalidomide probe, one hour
How it was run: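 Serially diluted compounds compete with a Cy5-labeled thalidomide tracer (60 nM) for His-tagged CRBN-DDB1 (2 nM), detected via anti-6His Tb cryptate (0.4 nM); buffer HEPES pH 7.5 with TCEP, Brij-35, NaCl, BSA. One-hour room-temperature incubation, HTRF signal read, IC50 by four-parameter curve.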

CRBN/DDB1, sequence (Q96SW2 whole entry, species assumed): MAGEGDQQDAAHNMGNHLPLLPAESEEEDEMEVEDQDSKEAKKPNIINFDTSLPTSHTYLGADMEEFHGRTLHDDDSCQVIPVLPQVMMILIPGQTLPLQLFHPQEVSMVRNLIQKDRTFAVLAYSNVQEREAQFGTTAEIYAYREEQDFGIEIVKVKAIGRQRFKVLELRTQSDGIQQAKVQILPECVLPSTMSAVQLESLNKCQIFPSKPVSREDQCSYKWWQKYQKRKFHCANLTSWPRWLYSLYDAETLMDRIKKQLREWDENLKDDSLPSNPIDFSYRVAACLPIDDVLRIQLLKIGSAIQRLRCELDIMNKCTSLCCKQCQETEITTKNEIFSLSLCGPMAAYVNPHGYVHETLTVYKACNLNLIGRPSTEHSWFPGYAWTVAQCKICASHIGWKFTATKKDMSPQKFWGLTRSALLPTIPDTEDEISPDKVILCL
CRBN/DDB1, sequence (Q16531 whole entry partner, species assumed): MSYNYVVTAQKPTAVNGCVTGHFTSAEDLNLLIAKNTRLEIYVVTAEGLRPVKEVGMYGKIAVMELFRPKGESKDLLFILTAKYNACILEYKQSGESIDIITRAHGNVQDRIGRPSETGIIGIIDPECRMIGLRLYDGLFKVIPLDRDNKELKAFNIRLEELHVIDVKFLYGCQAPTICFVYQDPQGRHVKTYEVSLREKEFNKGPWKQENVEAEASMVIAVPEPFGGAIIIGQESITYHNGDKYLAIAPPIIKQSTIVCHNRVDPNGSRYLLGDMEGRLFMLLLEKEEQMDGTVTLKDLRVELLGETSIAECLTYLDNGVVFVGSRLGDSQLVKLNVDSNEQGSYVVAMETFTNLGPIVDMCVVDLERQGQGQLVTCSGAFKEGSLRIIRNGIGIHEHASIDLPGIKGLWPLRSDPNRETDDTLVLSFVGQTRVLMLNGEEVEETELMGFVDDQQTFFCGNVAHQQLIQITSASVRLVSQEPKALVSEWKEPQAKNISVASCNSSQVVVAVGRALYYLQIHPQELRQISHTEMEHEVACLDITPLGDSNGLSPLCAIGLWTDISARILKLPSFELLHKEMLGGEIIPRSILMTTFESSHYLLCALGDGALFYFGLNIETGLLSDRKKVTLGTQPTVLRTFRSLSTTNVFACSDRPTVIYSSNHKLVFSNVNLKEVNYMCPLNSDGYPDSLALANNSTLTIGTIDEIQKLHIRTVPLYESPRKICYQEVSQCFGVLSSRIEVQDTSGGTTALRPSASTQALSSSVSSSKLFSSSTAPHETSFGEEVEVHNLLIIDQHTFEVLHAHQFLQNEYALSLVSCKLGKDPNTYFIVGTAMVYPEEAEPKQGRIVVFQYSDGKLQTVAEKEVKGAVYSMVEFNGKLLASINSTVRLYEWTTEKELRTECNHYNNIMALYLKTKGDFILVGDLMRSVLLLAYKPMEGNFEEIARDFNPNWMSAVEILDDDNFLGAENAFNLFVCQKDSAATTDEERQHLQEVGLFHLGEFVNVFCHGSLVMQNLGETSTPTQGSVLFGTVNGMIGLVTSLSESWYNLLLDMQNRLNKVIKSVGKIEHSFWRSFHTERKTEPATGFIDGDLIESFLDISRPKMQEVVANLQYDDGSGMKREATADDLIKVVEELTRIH
T1 sequence (Q9UKS7 whole entry): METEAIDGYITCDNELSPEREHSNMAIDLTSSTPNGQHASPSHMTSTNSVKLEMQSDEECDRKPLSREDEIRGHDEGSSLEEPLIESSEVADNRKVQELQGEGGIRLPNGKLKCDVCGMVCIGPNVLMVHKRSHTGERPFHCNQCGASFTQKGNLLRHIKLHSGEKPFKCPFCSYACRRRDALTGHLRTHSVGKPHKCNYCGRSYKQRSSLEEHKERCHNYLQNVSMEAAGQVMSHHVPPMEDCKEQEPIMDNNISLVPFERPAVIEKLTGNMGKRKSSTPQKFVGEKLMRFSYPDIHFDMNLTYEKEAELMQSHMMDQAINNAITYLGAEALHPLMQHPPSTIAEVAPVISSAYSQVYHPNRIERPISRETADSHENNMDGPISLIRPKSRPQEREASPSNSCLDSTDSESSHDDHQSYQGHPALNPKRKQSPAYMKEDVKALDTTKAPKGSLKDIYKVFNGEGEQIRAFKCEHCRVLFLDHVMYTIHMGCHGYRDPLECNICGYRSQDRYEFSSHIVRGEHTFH
T1 sequence (Q96SW2 whole entry): as the sequence (Q96SW2 whole entry, species assumed) above
T1 sequence (Q16531 2-1140 partner): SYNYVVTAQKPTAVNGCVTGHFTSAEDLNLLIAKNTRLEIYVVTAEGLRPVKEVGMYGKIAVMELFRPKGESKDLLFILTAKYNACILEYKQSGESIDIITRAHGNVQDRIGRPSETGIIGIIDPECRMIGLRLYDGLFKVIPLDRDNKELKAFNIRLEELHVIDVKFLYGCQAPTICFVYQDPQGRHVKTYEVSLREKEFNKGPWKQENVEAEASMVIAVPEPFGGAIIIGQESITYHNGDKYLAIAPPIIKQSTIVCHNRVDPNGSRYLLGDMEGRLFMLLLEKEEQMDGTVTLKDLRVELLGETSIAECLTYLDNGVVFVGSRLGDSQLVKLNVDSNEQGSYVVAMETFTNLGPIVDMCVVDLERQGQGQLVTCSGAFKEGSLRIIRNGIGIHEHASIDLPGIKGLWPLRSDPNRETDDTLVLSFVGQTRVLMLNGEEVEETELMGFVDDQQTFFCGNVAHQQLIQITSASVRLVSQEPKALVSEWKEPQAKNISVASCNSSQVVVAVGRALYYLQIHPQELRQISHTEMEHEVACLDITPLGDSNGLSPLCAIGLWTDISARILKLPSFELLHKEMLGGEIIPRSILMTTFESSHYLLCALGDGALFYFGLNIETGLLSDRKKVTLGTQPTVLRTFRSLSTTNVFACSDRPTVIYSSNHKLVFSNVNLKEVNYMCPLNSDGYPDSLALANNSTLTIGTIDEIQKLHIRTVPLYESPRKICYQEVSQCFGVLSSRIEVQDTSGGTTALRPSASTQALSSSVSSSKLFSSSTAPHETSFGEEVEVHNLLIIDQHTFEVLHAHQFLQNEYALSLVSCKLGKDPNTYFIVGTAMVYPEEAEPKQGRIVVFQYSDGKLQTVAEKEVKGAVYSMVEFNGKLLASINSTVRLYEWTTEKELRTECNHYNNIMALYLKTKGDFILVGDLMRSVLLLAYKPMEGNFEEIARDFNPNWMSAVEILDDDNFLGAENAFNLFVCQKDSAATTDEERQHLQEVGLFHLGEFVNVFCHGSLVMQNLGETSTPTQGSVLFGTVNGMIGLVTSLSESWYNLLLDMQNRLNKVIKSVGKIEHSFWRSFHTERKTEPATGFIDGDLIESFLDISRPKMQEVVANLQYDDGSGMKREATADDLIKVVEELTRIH
IKZF1, sequence (Q13422 whole entry): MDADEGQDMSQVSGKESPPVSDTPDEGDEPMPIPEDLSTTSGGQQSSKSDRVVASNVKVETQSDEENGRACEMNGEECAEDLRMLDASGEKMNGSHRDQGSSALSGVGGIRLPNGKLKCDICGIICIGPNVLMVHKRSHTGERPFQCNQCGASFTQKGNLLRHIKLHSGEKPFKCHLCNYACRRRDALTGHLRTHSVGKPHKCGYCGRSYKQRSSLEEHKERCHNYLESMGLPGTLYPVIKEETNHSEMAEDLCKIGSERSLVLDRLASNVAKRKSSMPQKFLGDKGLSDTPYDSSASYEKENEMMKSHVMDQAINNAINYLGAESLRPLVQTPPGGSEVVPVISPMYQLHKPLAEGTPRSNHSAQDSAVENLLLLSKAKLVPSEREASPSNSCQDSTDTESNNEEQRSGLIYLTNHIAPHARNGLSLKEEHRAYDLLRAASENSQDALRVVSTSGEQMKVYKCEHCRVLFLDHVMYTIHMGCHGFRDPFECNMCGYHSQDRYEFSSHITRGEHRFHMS
IKZF1, sequence (Q96SW2 whole entry): as the sequence (Q96SW2 whole entry, species assumed) above
IKZF1, sequence (Q16531 2-1140 partner): as the sequence (Q16531 2-1140 partner) above

SMILES | DC50 (IKZF1) [nM] | Dmax (IKZF1) [%] | DC50 (IKZF2 [1]) [nM] | Dmax (IKZF2 [1]) [%] | DC50 (IKZF2 [2]) [nM] | Dmax (IKZF2 [2]) [%] | IC50 (CRBN/DDB1) [nM]
O=C1CCC(N2Cc3cc(-c4cc(CN5CC6COCC(C6)C5)c5cc[nH]c5n4)ccc3C2=O)C(=O)N1 (centres unmarked) [Example 121, 3-(5-(4-((3-oxa-7-azabicyclo[3.3.1]nonan-7-yl)methyl)-1H-pyrrolo[2,3-b]pyridin-6-yl)-1-oxoisoindolin-2-yl) piperidine-2,6-dio] | > 10000 | < 20 | 10 to 100 | > 80 | 1 to 10 | > 80 | 1000 to 5000
O=C1CCC(N2Cc3cc(-c4cc(CN5CCCC5)c5ccn(C6CCC6)c5n4)ccc3C2=O)C(=O)N1 (centres unmarked) [Example 128, 3-(5-(1-cyclobutyl-4-(pyrrolidin-1-ylmethyl)-1H-pyrrolo[2,3-b]pyridin-6-yl)-1-oxoisoindolin-2-yl) piperidine-2,6-dione] | 10 to 100 | 20 to 40 | 1 to 10 | > 80 | < 1 | > 80 | 100 to 500
O=C1CCC(N2Cc3cc(-c4cc(CN5CCCC5)c5ccn(C6COC6)c5n4)ccc3C2=O)C(=O)N1 (centres unmarked) [Example 129, 3-(5-(1-(oxetan-3-yl)-4-(pyrrolidin-1-ylmethyl)-1H-pyrrolo[2,3-b]pyridin-6-yl)-1-oxoisoindolin-2-yl) piperidine-2,6-dione] | 10 to 100 | 20 to 40 | 1 to 10 | > 80 | < 1 | > 80 | 100 to 500
O=C1CCC(N2Cc3cc(-c4cc(CN5CCC(O)C5)c5ccn(C6COC6)c5n4)ccc3C2=O)C(=O)N1 (centres unmarked) [Example 158, 3-(5-(4-((3-hydroxypyrrolidin-1-yl)methyl)-1-(oxetan-3-yl)-1H-pyrrolo[2,3-b]pyridin-6-yl)-1-oxoisoindolin-2-yl) piperidine-2,6-dione] | > 10000 | < 20 | 10 to 100 | > 80 | 10 to 100 | 60 to 80 | 100 to 500
O=C1CCC(N2Cc3cc(-c4cc(CN5CC(F)C5)c5ccn(C6COC6)c5n4)ccc3C2=O)C(=O)N1 (centres unmarked) [Example 161, 3-(5-(4-((3-fluoroazetidin-1-yl)methyl)-1-(oxetan-3-yl)-1H-pyrrolo[2,3-b]pyridin-6-yl)-1-oxoisoindolin-2-yl) piperidine-2,6-dione] | > 10000 | < 20 | 10 to 100 | 60 to 80 | 1 to 10 | 60 to 80 | 100 to 500
O=C1CCC(N2Cc3cc(-c4cc(CN5CCC(O)CC5)c5ccn(C6COC6)c5n4)ccc3C2=O)C(=O)N1 (centres unmarked) [Example 162, 3-(5-(4-((4-hydroxypiperidin-1-yl)methyl)-1-(oxetan-3-yl)-1H-pyrrolo[2,3-b]pyridin-6-yl)-1-oxoisoindolin-2-yl) piperidine-2,6-dione] | 100 to 1000 | 20 to 40 | 10 to 100 | > 80 | 10 to 100 | 60 to 80 | 100 to 500
O=C1CCC(N2Cc3cc(-c4cc(CN5CCC(CO)CC5)c5ccn(C6COC6)c5n4)ccc3C2=O)C(=O)N1 (centres unmarked) [Example 163, 3-(5-(4-((4-(hydroxymethyl)piperidin-1-yl)methyl)-1-(oxetan-3-yl)-1H-pyrrolo[2,3-b]pyridin-6-yl)-1-oxoisoindolin-2-yl) piperidine-2,6-dione] | 100 to 1000 | 20 to 40 | 1 to 10 | > 80 | 1 to 10 | 60 to 80 | 100 to 500
O=C1CCC(N2Cc3cc(-c4cc(CN5CCC(CO)C5)c5ccn(C6COC6)c5n4)ccc3C2=O)C(=O)N1 (centres unmarked) [Example 164, 3-(5-(4-((3-(hydroxymethyl)pyrrolidin-1-yl)methyl)-1-(oxetan-3-yl)-1H-pyrrolo[2,3-b]pyridin-6-yl)-1-oxoisoindolin-2-yl) piperidine-2,6-dione] | 100 to 1000 | 20 to 40 | 10 to 100 | > 80 | 10 to 100 | 60 to 80 | 100 to 500
O=C1CCC(N2Cc3cc(-c4cc(CN5CCCC5)c5ccn(C6CCOC6)c5n4)ccc3C2=O)C(=O)N1 (centres unmarked) [Example 170, 3-(1-oxo-5-(4-(pyrrolidin-1-ylmethyl)-1-(tetrahydrofuran-3-yl)-1H-pyrrolo[2,3-b]pyridin-6-yl)isoindolin-2-yl) piperidine-2,6-dione] | > 10000 | < 20 | 10 to 100 | 60 to 80 | 1 to 10 | 60 to 80 | 500 to 1000
O=C1CCC(N2Cc3cc(-c4cc(CN5CCCC5)c5ccn(C6CS(=O)(=O)C6)c5n4)ccc3C2=O)C(=O)N1 (centres unmarked) [Example 176, 3-(5-(1-(1,1-dioxidothietan-3-yl)-4-(pyrrolidin-1-ylmethyl)-1H-pyrrolo[2,3-b]pyridin-6-yl)-1-oxoisoindolin-2-yl) piperidine-2,6-dione] | 10 to 100 | 20 to 40 | 1 to 10 | 60 to 80 | 1 to 10 | > 80 | 500 to 1000
O=C1CCC(N2Cc3cc(-c4cc(CN5CC6COCC6C5)c5ccn(C6COC6)c5n4)ccc3C2=O)C(=O)N1 (centres unmarked) [Example 186, 3-(5-(1-(oxetan-3-yl)-4-((tetrahydro-1H-furo[3,4-c]pyrrol-5 (3H)-yl)methyl)-1H-pyrrolo[2,3-b]pyridin-6-yl)-1-oxoisoindolin-2-yl) piperidine-2,6-dione] | > 10000 | < 20 | 1 to 10 | > 80 | 1 to 10 | > 80 | 100 to 500
O=C1CCC(N2Cc3cc(-c4cc(CN5CCC(F)CC5)c5ccn(C6COC6)c5n4)ccc3C2=O)C(=O)N1 (centres unmarked) [Example 187, 3-(5-(4-((4-fluoropiperidin-1-yl)methyl)-1-(oxetan-3-yl)-1H-pyrrolo[2,3-b]pyridin-6-yl)-1-oxoisoindolin-2-yl) piperidine-2,6-dione] | > 10000 | < 20 | 1 to 10 | > 80 | 1 to 10 | > 80 | 100 to 500
COC1CCN(Cc2cc(-c3ccc4c(c3)CN(C3CCC(=O)NC3=O)C4=O)nc3c2ccn3C2COC2)CC1 (centres unmarked) [Example 189, 3-(5-(4-((4-methoxypiperidin-1-yl)methyl)-1-(oxetan-3-yl)-1H-pyrrolo[2,3-b]pyridin-6-yl)-1-oxoisoindolin-2-yl) piperidine-2,6-dione] | 10 to 100 | 20 to 40 | 1 to 10 | > 80 | 1 to 10 | > 80 | 100 to 500
CC(C)Nc1n[nH]c2c(CN3CCCC3)cc(-c3ccc4c(c3)CN(C3CCC(=O)NC3=O)C4=O)nc12 (centres unmarked) [Example 193, 3-(5-(3-(isopropylamino)-7-(pyrrolidin-1-ylmethyl)-1H-pyrazolo[4,3-b]pyridin-5-yl)-1-oxoisoindolin-2-yl) piperidine-2,6-dione] | 10 to 100 | 20 to 40 | 1 to 10 | 40 to 60 | 1 to 10 | > 80 | 1000 to 5000
